Test results as given in patent US20040121946A9, “Inducing cellular immune responses to her2/neu using peptide and nucleic acid compositions” (priority 2002, published 2004).
Like-named read-outs stand apart in the source and are kept apart here. Where a SMILES comes first, the peptide text is derived from it. Where no end group is shown, it is not given here. [ ]: non-standard residue; d: D form. Abu = CC[C@H](N)C(=O)O

Assays:
[1] = tested on: peptide-pulsed target cells and transfected cells endogenously expressing the antigen; assay: Recall CTL responses of PBMCs from ovarian cancer patients; type: cell-based, human; conditions: data from ovarian cancer patients
[2] = tested on: tumor targets that endogenously express HER2/neu (colon adenocarcinoma cell lines SW403 and HT-29); assay: Primary in vitro CTL induction, recognition of wild-type peptide and endogenous tumor targets (51Cr release / in situ IFNγ ELISA); type: cell-based, human; conditions: number of donors yielding a positive response/total tested; normal donors
HLA-A*0203 = HLA-A*0203 (Homo sapiens, UniProt P04439, A173T/D140Y/D185E/D98H/E277Q/G131W/G231S/I119V/I121R/I166T/I218V/L180W/L300P/L318F/N151K/N90K/P208A/P217A/Q86G/Q94H/R138H/R169H/T345S); type: binding
HLA-A*0201 = HLA-A*0201 (Homo sapiens, UniProt P04439, D140Y/D185E/D98H/E176V/E277Q/G131W/G231S/I119V/I121R/I166T/I218V/L300P/L318F/N151K/N90K/P208A/P217A/Q86G/Q94H/R138H/R169H/T345S); type: binding
HLA-A*0206 = HLA-A*0206 (Homo sapiens, UniProt P04439, D140Y/D185E/D98H/E176V/E277Q/F33Y/G131W/G231S/I119V/I121R/I166T/I218V/L300P/L318F/N151K/N90K/P208A/P217A/Q86G/Q94H/R138H/R169H/T345S); type: binding
HLA-A*6801 = HLA-A*6801 (Homo sapiens, UniProt P04439, A269V/D185E/E176V/E277Q/E87N/F33Y/G231S/I121M/I166T/I218V/L180W/L300P/L318F/N151K/P208A/P217A/Q86R/R169H/T345S); type: binding; conditions: Table XXIII, HLA-A3 supermotif-bearing peptides
HLA-A*0301 = HLA-A*0301 (Homo sapiens, UniProt P04439); type: binding; conditions: Table XXIII, HLA-A3 supermotif-bearing peptides
HLA-A*3101 = HLA-A*3101 (Homo sapiens, UniProt P04439, A270S/D185E/E176V/E277Q/F33T/G231S/G80R/H175R/I121M/I218V/I322F/K168Q/L300P/L318F/M331R/P217A/Q94H/R138Q/T323A/T345S/T97I/V358M); type: binding; conditions: Table XXIII, HLA-A3 supermotif-bearing peptides
[3] = tested on: A3-supertype alleles (A*0301, A*1101, A*3101, A*3301, A*6801); assay: A3-supertype cross-reactive binding; parameters: species or system human; conditions: of five A3-supertype alleles tested
HLA-A*3301 = HLA-A*3301 (Homo sapiens, UniProt P04439, A270S/D185E/E176V/E277Q/E87N/F33T/G231S/H175R/I121M/I218V/I322F/K168Q/K210R/L300P/L318F/M331R/P217A/Q86R/Q94H/R138Q/T323A/T345S/T97I/V358M/Y195H); type: binding; conditions: Table XXIII, HLA-A3 supermotif-bearing peptides
HLA-A*1101 = HLA-A*1101 (Homo sapiens, UniProt P04439, A114D/D185E/E176A/F33Y/L180Q/S129P/T187R); type: binding; conditions: Table XXIII, HLA-A3 supermotif-bearing peptides
[4] = HLA-A2 supermotif-bearing peptides, Table XXVII
[5] = Table XXII, A2 supermotif peptides and analogs

IC50 (HLA-A*6801)	IC50 (HLA-A*0301)	IC50 (HLA-A*3101)	No. of A3 Alleles Crossbound [3]	IC50 (HLA-A*3301)	IC50 (HLA-A*1101)	Molecule	also measured
–	–	–	–	–	–	CC(C)C[C@H](NC(=O)[C@H](CCC(N)=O)NC(=O)[C@@H](NC(=O)[C@@H](NC(=O)[C@H](CO)NC(=O)[C@@H](NC(=O)[C@H](CC(C)C)NC(=O)[C@@H](N)CS)[C@@H](C)O)[C@@H](C)O)C(C)C)C(=O)N[C@H](C(=O)O)C(C)C	CTL Wildtype [1]: 1/2; CTL Tumor [2]: 0/4; CTL Wildtype [2]: 1/4
–	–	–	–	–	–	CC(C)C[C@H](NC(=O)[C@H](CO)NC(=O)CNC(=O)[C@H](Cc1ccccc1)NC(=O)[C@@H](NC(=O)[C@@H](N)CCCCN)[C@@H](C)O)C(=O)N[C@@H](C)C(=O)N[C@@H](Cc1ccccc1)C(=O)N[C@H](C(=O)O)C(C)C	IC50 (HLA-A*0203; Table XXVII): 1010 nM; IC50 (HLA-A*0201; [4]): 35 nM
–	–	–	–	–	–	CC[C@H](C)[C@H](NC(=O)[C@H](CC(C)C)NC(=O)[C@@H](N)CO)C(=O)N[C@@H](CO)C(=O)N[C@@H](C)C(=O)N[C@H](C(=O)N[C@H](C(=O)NCC(=O)N[C@H](C(=O)O)C(C)C)C(C)C)C(C)C	IC50 (HLA-A*0206; Table XXVII): 20 nM; IC50 (HLA-A*0203; Table XXVII): 16 nM; IC50 (HLA-A*0201; [4]): 7.1 nM
–	–	–	–	–	–	CC[C@H](C)[C@H](NC(=O)[C@H](CC(C)C)NC(=O)[C@@H](N)Cc1ccc(O)cc1)C(=O)N[C@@H](CCSC)C(=O)N[C@H](C(=O)N[C@@H](CCCCN)C(=O)N[C@@H](CS)C(=O)N[C@@H](Cc1c[nH]c2ccccc12)C(=O)N[C@@H](CCSC)C(=O)N[C@H](C(=O)O)C(C)C)C(C)C	IC50 (HLA-A*0206; Table XXVII): 18 nM; IC50 (HLA-A*0203; Table XXVII): 116 nM; IC50 (HLA-A*0201; [4]): 13 nM
–	–	–	–	–	–	CC[C@H](C)[C@H](NC(=O)[C@H](CCSC)NC(=O)[C@H](Cc1c[nH]c2ccccc12)NC(=O)[C@H](CS)NC(=O)[C@H](CCCCN)NC(=O)[C@@H](NC(=O)[C@H](CCSC)NC(=O)[C@@H](NC(=O)[C@H](CCSC)NC(=O)[C@@H](N)Cc1ccc(O)cc1)[C@@H](C)CC)C(C)C)C(=O)O	CTL Tumor [1]: 2/2; CTL Wildtype [1]: 2/2; CTL Tumor [2]: 0/1; CTL Wildtype [2]: 0/1
–	–	–	–	–	–	CC[C@H](NC(=O)[C@H](CC(C)C)NC(=O)[C@H](C)N)C(=O)N[C@@H](CCCNC(=N)N)C(=O)N[C@@H](Cc1c[nH]c2ccccc12)C(=O)NCC(=O)N[C@@H](CC(C)C)C(=O)N[C@@H](CC(C)C)C(=O)N[C@@H](CC(C)C)C(=O)O [Her2/neu.5.B3]	IC50 (HLA-A*0203; [5]): 12 nM
–	–	–	–	–	–	CC[C@H](NC(=O)[C@@H](NC(=O)[C@H](C)N)[C@@H](C)O)C(=O)N[C@@H](CCCNC(=N)N)C(=O)N[C@@H](Cc1c[nH]c2ccccc12)C(=O)NCC(=O)N[C@@H](CC(C)C)C(=O)N[C@@H](CC(C)C)C(=O)N[C@H](C(=O)O)C(C)C [Her2/neu.5.T2B3V9] (H-AT[Abu]RWGLLV-OH)	IC50 (HLA-A*0206; [5]): 2180 nM; IC50 (HLA-A*0201; [5]): 16700 nM
–	–	–	–	–	–	CC[C@H](NC(=O)[C@H](CCSC)NC(=O)[C@H](C)N)C(=O)N[C@@H](CCCNC(=N)N)C(=O)N[C@@H](Cc1c[nH]c2ccccc12)C(=O)NCC(=O)N[C@@H](CC(C)C)C(=O)N[C@@H](CC(C)C)C(=O)N[C@H](C(=O)O)C(C)C [Her2/neu.5M2B3V9] (H-AM[Abu]RWGLLV-OH)	IC50 (HLA-A*0206; [5]): 726 nM; IC50 (HLA-A*0203; [5]): 16 nM; IC50 (HLA-A*0201; [5]): 36 nM
–	–	–	–	–	–	CC[C@H](NC(=O)[C@@H](NC(=O)[C@H](C)N)C(C)C)C(=O)N[C@@H](CCCNC(=N)N)C(=O)N[C@@H](Cc1c[nH]c2ccccc12)C(=O)NCC(=O)N[C@@H](CC(C)C)C(=O)N[C@@H](CC(C)C)C(=O)N[C@H](C(=O)O)C(C)C [Her2/neu.5V2B3V9] (H-AV[Abu]RWGLLV-OH)	IC50 (HLA-A*0206; [5]): 2180 nM; IC50 (HLA-A*0203; [5]): 141 nM; IC50 (HLA-A*0201; [5]): 10000 nM
–	–	–	–	–	–	CC[C@H](C)[C@H](NC(=O)[C@H](CCC(=O)O)NC(=O)[C@@H](NC(=O)[C@H](CC(C)C)NC(=O)[C@@H](N)CO)[C@@H](C)O)C(=O)N[C@@H](CC(C)C)C(=O)N[C@@H](CCCCN)C(=O)NCC(=O)NCC(=O)N[C@H](C(=O)O)C(C)C [Her2/neu.144]	IC50 (HLA-A*0203; [5]): 22 nM
73 nM	268 nM	6.9 nM	4	223 nM	2220 nM	CC[C@H](C)[C@H](N)C(=O)N[C@@H](CO)C(=O)N[C@@H](Cc1c[nH]c2ccccc12)C(=O)N[C@@H](CC(C)C)C(=O)NCC(=O)N[C@@H](CC(C)C)C(=O)N[C@@H](CCCNC(=N)N)C(=O)N[C@@H](CO)C(=O)N[C@@H](CC(C)C)C(=O)N[C@@H](CCCNC(=N)N)C(=O)O [Her2/neu.450]	–
8.9 nM	180 nM	> 10000 nM	3	> 10000 nM	375 nM	CC(C)C[C@H](NC(=O)[C@H](CCC(N)=O)NC(=O)[C@H](CC(=O)O)NC(=O)[C@H](Cc1c[nH]c2ccccc12)NC(=O)[C@@H]1CCCN1C(=O)[C@@H](NC(=O)[C@@H](NC(=O)[C@@H](N)Cc1c[nH]cn1)C(C)C)C(C)C)C(=O)N[C@@H](Cc1ccccc1)C(=O)N[C@@H](CCCCN)C(=O)O [Her2/neu.478.V2K10]	–
4 nM	3140 nM	19 nM	4	88 nM	83 nM	CC(C)C[C@H](NC(=O)[C@H](CCC(N)=O)NC(=O)[C@H](CC(=O)O)NC(=O)[C@H](Cc1c[nH]c2ccccc12)NC(=O)[C@@H]1CCCN1C(=O)[C@@H](NC(=O)[C@@H](NC(=O)[C@@H](N)Cc1c[nH]cn1)[C@@H](C)O)C(C)C)C(=O)N[C@@H](Cc1ccccc1)C(=O)N[C@@H](CCCNC(=N)N)C(=O)O [Her2/neu.478]	–
15 nM	34 nM	60 nM	4	4270 nM	22 nM	CC[C@H](NC(=O)[C@H](CC(N)=O)NC(=O)[C@@H](NC(=O)[C@@H](N)CC)C(C)C)C(=O)N[C@@H](CO)C(=O)N[C@@H](CCC(N)=O)C(=O)N[C@@H](Cc1ccccc1)C(=O)N[C@@H](CC(C)C)C(=O)N[C@@H](CCCCN)C(=O)O [Her2/neu.528.B1B4K9] (H-[Abu]VN[Abu]SQFLK-OH)	–
10 nM	177 nM	38 nM	5	58 nM	80 nM	CC[C@H](NC(=O)[C@H](CC(N)=O)NC(=O)[C@@H](NC(=O)[C@@H](N)CC)C(C)C)C(=O)N[C@@H](CO)C(=O)N[C@@H](CCC(N)=O)C(=O)N[C@@H](Cc1ccccc1)C(=O)N[C@@H](CC(C)C)C(=O)N[C@@H](CCCNC(=N)N)C(=O)O [Her2/neu.528.B1B4] (H-[Abu]VN[Abu]SQFLR-OH)	–
18 nM	7330 nM	34 nM	4	50 nM	194 nM	CC(C)C[C@H](NC(=O)[C@H](Cc1ccccc1)NC(=O)[C@H](CCC(N)=O)NC(=O)[C@H](CO)NC(=O)[C@H](CS)NC(=O)[C@H](CC(N)=O)NC(=O)[C@@H](NC(=O)[C@@H](N)CS)C(C)C)C(=O)N[C@@H](CCCNC(=N)N)C(=O)O [Her2/neu.528]	–
229 nM	550 nM	1500 nM	2	22300 nM	33 nM	AVPLDSTFYK [Her2/neU.997.V2K10]	–
–	–	–	–	–	–	H-QLMPYGCLL-OH [Her2/neu.799]	IC50 (HLA-A*0206; [5]): 712 nM; IC50 (HLA-A*0203; [5]): 114 nM
50 nM	7860 nM	198 nM	3	107 nM	> 10000 nM	LVKSPNHVR [Her2/neu.852.R9]	–
–	–	–	–	–	–	VLIQRNPQV	IC50 (HLA-A*0206; Table XXVII): 385 nM; IC50 (HLA-A*0203; Table XXVII): 135 nM; IC50 (HLA-A*0201): 55 nM
–	–	–	–	–	–	VLLGVVFGV	IC50 (HLA-A*0206; Table XXVII): 6 nM; IC50 (HLA-A*0201; [4]): 2.4 nM
